Measured values as given in publication PMC11436758, “Computer-aided drug design to generate a unique antibiotic family” (Nature Communications, 2024).
In brackets after ≈: the same amount, converted by molar mass. Several values for one entry are separate records, joined by “and”; a condition that tells them apart may be missing. Equal values may be shown once. Entries after “also recorded” stand apart in the source; their conditions may differ.

Tests used:
[1] = system: S. aureus (MSSA); assay: MIC, clinical and laboratory strains; format: cell-based
Experimental: (§1) The medium employed for the assay was Mueller Hinton II Broth (MHB II; Becton-Dickinson, Sparks, MD, USA). Agar plates used for the organisms were trypticase soy agar plus 5% sheep blood (BD; Sparks, MD, USA). MIC assay plates were prepared using the CLSI broth microdilution procedure. Automated liquid handlers (Multidrop 384, Biomek 2000 and Biomek FX) were used to conduct serial dilutions and liquid transfers. A standardized inoculum of each organism was prepared per CLSI methods. Suspensions were prepared to equal a 0.5 McFarland standard, followed by a 1:20 dilution in test media. The inocula were dispensed into sterile reservoirs divided by length (Beckman Colter) and the Biomek 2000 was used to inoculate the plates. Daughter plates were placed on the Biomek 2000 work surface in reverse orientation so that inoculation took place from low to high drug concentration. The Biomek 2000 delivered 10 μL of the diluted suspension into each well. These inoculations yielded a final cell concentration in the daughter plates of ~5 × 10^5 colony-forming units/mL in each well. The wells of the daughter plates ultimately contained 185 μL of broth, 5 μL of drug solution, and 10 μL of bacterial inoculum. Plates were covered with a sterile lid on the top plate, placed in plastic bags, and incubated at 35 °C for ~18 h. The microplates were viewed from the bottom using a plate viewer and the MIC was read. The MIC was recorded as the lowest concentration of drug that inhibited visible growth of the organism.

[2] = system: S. aureus (VISA); assay: MIC, clinical and laboratory strains; format: cell-based
Experimental: as §1

[3] = system: S. aureus (MRSA); assay: MIC, clinical and laboratory strains; format: cell-based
Experimental: as §1

[4] = system: MRSA (ATCC 33591); assay: Rabbit ischemic ear wound model of infection by MRSA, topical treatment; format: in vivo, New Zealand White rabbits; details: for % wound closure / wound size (mean) / Wound size (mm2): Fig 2c
Experimental: New Zealand White rabbits from Charles River were employed for this study. Both male and female rabbits were used; sample size prevented disaggregation of data by sex. Investigators were blinded to group allocation, data collection, and data analysis. Food and water were given ad libidum and animals were acclimatized for 7 days with photoperiods of alternating 12 h light and dark at 21 °C in relative humidity of 40–50%. The formulation for delivery of DNM compounds was Glaxal base (WellSpring Pharmaceutical Canada Corp., Oakville, Canada). Formulation was performed by dissolving compound in Glaxal base to give final concentrations of 1% or 2% DNM compound (w/v). The analgesic (Buprenex 0.02 mg/kg sc) and anesthesia (isoflurane (0.5–5% with oxygen carrier 0.5–2 L/min) were used as required during procedures. An ischemia wound healing model was conducted surgically. Each wound was inoculated with 50 μl of 2 × 10^7 CFU/mL MRSA (ATCC #33591) and dressed. After 1 day, wounds were treated with either 50 μl control cream containing vehicle or 50 μl cream containing compound daily. Wounds were assessed and observations recorded using the Draize scoring system. Digital photographs of each wound were obtained and documented.

[5] = Histopathology (H&E) of treated rabbit ischemic ear wounds, dermal toxicity; details: Suppl Fig 7, score per wound
Experimental: Wounds were excised, fixed, and routine H&E staining was performed. Wounds were examined for pathology and scored in a blinded manner.
Post-wounding, under anesthesia, animals were euthanized with an intravenous injection of Beuthanasia-D at a dosage of 150 mg/kg of body weight. Specimens including the entire wound, along with ~2–3 mm of the normal unwounded skin margins were harvested. Each ear wound specimen was sectioned into halves. For one half of the wound, the wound was placed into a container with 10% neutral buffered formalin and processed for routine histological evaluation. Wounds were scored on a scale of 0–4 at the wound site for erythema, edema, inflammation, granulation, angiogenesis, and epithelialization. Wounds were characterized in a blinded manner by a board-certified member of the College of American Pathologists.

[6] = system: 102 ATCC strains and clinical isolates of Staphylococcus, Streptomyces, and Enterococcus; assay: MIC panel summary over all strains; format: cell-based; details: of 102 strains
Experimental: We also sought to determine if DNM0547 was bacteriostatic or bactericidal. Time kill experiments were carried out using increasing doses of DNM0547 against two different strains of MRSA.
as §1

For `C/C(=C\C(=O)OCCCCCCCCC(=O)O)C[C@@H]1OC[C@H](C[C@@H]2O[C@H]2[C@@H](C)[C@H](C)O)[C@@H](O)[C@H]1O` [mupirocin], the MIC ([1]; S. aureus (MSSA) 2127) was > 16 µg/mL, the MIC ([1]; S. aureus (MSSA) 6167) was 1 µg/mL (≈ 2 µM) and the MIC ([1]; S. aureus (MSSA) 6168) was 2 µg/mL (≈ 3.99 µM). It also gave an MIC ([1]; S. aureus (MSSA) 6170) of 2 µg/mL (≈ 3.99 µM), an MIC ([1]; S. aureus (MSSA) 6316) of 2 µg/mL (≈ 3.99 µM) and an MIC ([1]; S. aureus (MSSA) 6317) of 1 µg/mL (≈ 2 µM). It also gave an MIC ([1]; S. aureus (MSSA) 6318) of 2 µg/mL (≈ 3.99 µM), an MIC ([1]; S. aureus (MSSA) 6499) of 1 µg/mL (≈ 2 µM) and an MIC ([1]; S. aureus (MSSA) 6500) of 1 µg/mL (≈ 2 µM). It also gave an MIC ([1]; S. aureus (MSSA) 6502) of 1 µg/mL (≈ 2 µM), an MIC ([2]; S. aureus (VISA) 1724) of 0.25 µg/mL (≈ 0.499 µM) and an MIC ([2]; S. aureus (VISA) 2012) of 1 µg/mL (≈ 2 µM). The MIC ([2]; S. aureus (VISA) 2013) was 0.25 µg/mL (≈ 0.499 µM), the MIC ([2]; S. aureus (VISA) 2014) was 0.5 µg/mL (≈ 0.999 µM) and the MIC ([2]; S. aureus (VISA) 2015) was 0.06 µg/mL (≈ 0.12 µM). For the same molecule, the MIC ([2]; S. aureus (VISA) 2016) was 0.25 µg/mL (≈ 0.499 µM), the MIC ([2]; S. aureus (VISA) 2017) was 0.5 µg/mL (≈ 0.999 µM) and the MIC ([2]; S. aureus (VISA) 2018) was 0.12 µg/mL (≈ 0.24 µM). The MIC ([2]; S. aureus (VISA) 2019) was 4 µg/mL (≈ 7.99 µM), the MIC ([2]; S. aureus (VISA) 2123) was 0.25 µg/mL (≈ 0.499 µM) and the MIC ([2]; S. aureus (VISA) NRS1/1723) was 0.25 µg/mL (≈ 0.499 µM). It also gave an MIC ([3]; S. aureus (MRSA) 2167) of 0.12 µg/mL (≈ 0.24 µM), an MIC ([3]; S. aureus (MRSA) 2168) of 0.25 µg/mL (≈ 0.499 µM) and an MIC ([3]; S. aureus (MRSA) 2169) of 0.25 µg/mL (≈ 0.499 µM). For the same molecule, the MIC ([3]; S. aureus (MRSA) 2170) was 0.25 µg/mL (≈ 0.499 µM), the MIC ([3]; S. aureus (MRSA) 2171) was 0.25 µg/mL (≈ 0.499 µM) and the MIC ([3]; S. aureus (MRSA) 2293) was 0.25 µg/mL (≈ 0.499 µM). It also gave an MIC ([3]; S. aureus (MRSA) 2294) of 0.25 µg/mL (≈ 0.499 µM), an MIC ([3]; S. aureus (MRSA) 2295) of 0.25 µg/mL (≈ 0.499 µM) and an MIC ([3]; S. aureus (MRSA) 2296) of 0.25 µg/mL (≈ 0.499 µM). For the same molecule, the MIC ([3]; S. aureus (MRSA) 2297) was 0.25 µg/mL (≈ 0.499 µM), the MIC ([3]; S. aureus (MRSA) 3880) was > 16 µg/mL and the MIC ([3]; S. aureus (MRSA) 5373) was 1 µg/mL (≈ 2 µM). The MIC ([3]; S. aureus (MRSA) 5666) was 1 µg/mL (≈ 2 µM), the MIC ([3]; S. aureus (MRSA) 5702) was 1 µg/mL (≈ 2 µM) and the MIC ([3]; S. aureus (MRSA) 5999) was 1 µg/mL (≈ 2 µM). It also gave an MIC ([3]; S. aureus (MRSA) 6165) of 1 µg/mL (≈ 2 µM), an MIC ([3]; S. aureus (MRSA) 6169) of 0.5 µg/mL (≈ 0.999 µM) and an MIC ([3]; S. aureus (MRSA) 6174) of 1 µg/mL (≈ 2 µM). It also gave an MIC ([3]; S. aureus (MRSA) 6311) of 1 µg/mL (≈ 2 µM), an MIC ([3]; S. aureus (MRSA) 6312) of 1 µg/mL (≈ 2 µM) and an MIC ([3]; S. aureus (MRSA) 6313) of 1 µg/mL (≈ 2 µM). The MIC ([3]; S. aureus (MRSA) 6315) was 1 µg/mL (≈ 2 µM), the MIC ([3]; S. aureus (MRSA) 6320) was 1 µg/mL (≈ 2 µM) and the MIC ([3]; S. aureus (MRSA) 6498) was 1 µg/mL (≈ 2 µM). It also gave an MIC ([3]; S. aureus (MRSA) 6501) of 1 µg/mL (≈ 2 µM), an MIC ([3]; S. aureus (MRSA) 6505) of 1 µg/mL (≈ 2 µM) and an MIC ([3]; S. aureus (MRSA) 6506) of 1 µg/mL (≈ 2 µM). The MIC ([3]; S. aureus (MRSA) NRS382/2119) was 1 µg/mL (≈ 2 µM), the MIC ([3]; S. aureus (MRSA) NRS383/2120) was > 16 µg/mL and the MIC ([3]; S. aureus (MRSA) NRS384/2011) was 1 µg/mL (≈ 2 µM). The CFUs ([4]; Fig 2b, individual wounds) was 0 CFUs (6×) and 4120 CFUs, the “% wound closure” value ([4]; Day 1) was 0% and the “wound size (mean)” value ([4]; Day 1) was 34.3 mm2. For the same molecule, the “% wound closure” value ([4]; Day 3) was 3.64%, the “wound size (mean)” value ([4]; Day 3) was 33.056 mm2 and the “wound size (mean)” value ([4]; Day 5) was 31.872 mm2. The “% wound closure” value ([4]; Day 7) was 10.3%, the “wound size (mean)” value ([4]; Day 7) was 30.776 mm2 and the “% wound closure” value ([4]; Day 10) was 22.68%. The “wound size (mean)” value ([4]; Day 10) was 26.526 mm2, the “% wound closure” value ([4]; Day 14) was 43.29% and the “wound size (mean)” value ([4]; Day 14) was 19.45 mm2. For the same molecule, the “% wound closure” value ([4]; Day 18) was 53.8%, the “wound size (mean)” value ([4]; Day 18) was 15.838 mm2 and the “Wound size (mm2)” value ([4]; individual wounds, Day 1) was 36.53 mm2 and 30.25 mm2 and 32.45 mm2 and 37.03 mm2 and 35.24 mm2. For the same molecule, the “Wound size (mm2)” value ([4]; individual wounds, Day 3) was 33.98 mm2 and 27.23 mm2 and 29.57 mm2 and 36.33 mm2 and 38.17 mm2, the “Wound size (mm2)” value ([4]; individual wounds, Day 5) was 33.31 mm2 and 25.96 mm2 and 29.21 mm2 and 35.69 mm2 and 35.19 mm2 and the “Wound size (mm2)” value ([4]; individual wounds, Day 7) was 31.43 mm2 and 25.29 mm2 and 28.29 mm2 and 34.94 mm2 and 33.93 mm2. For the same molecule, the “Wound size (mm2)” value ([4]; individual wounds, Day 10) was 30.25 mm2 and 23.34 mm2 and 26.6 mm2 and 26.26 mm2 and 26.18 mm2, the “Wound size (mm2)” value ([4]; individual wounds, Day 14) was 23.68 mm2 and 17.17 mm2 and 19.28 mm2 and 18.84 mm2 and 18.28 mm2 and the “Wound size (mm2)” value ([4]; individual wounds, Day 18) was 20.63 mm2 and 12.49 mm2 and 12.8 mm2 and 15.19 mm2 and 18.08 mm2. The “wound healing compared with control” value ([4]; topical 2%) was “did not alter wound healing from control; also recorded: not statistically significant”, the Edema [5] was 2 and the Erythema [5] was 2. The Inflammation [5] was 3 and 4 and the “number of strains tested with MIC not ≤ 2 μg/mL” value [6] was 26.
